Tested on: preferentially upregulated genes in LV, SP, LN
Assay: Z-score-based differential gene expression analysis (adjuvant group- or adjuvant-associated genes, 40 module mapping, TargetMine annotation)
Type: in vivo, C57BL/6 mice
Conditions: for Rnf213 1455500_at (Group G1, Modules 20) / Rsad2 1436058_at (Group G1, Modules 20) / Shisa5 1423986_a_at (Group G1, Modules 20) / Shisa5 1437503_a_at (Group G1, Modules 20) / Stat1 1450033_a_at (Group G1, Modules 20) / Stat1 1450034_at (Group G1, Modules 20) / Tdrd7 1426716_at (Group G1, Modules 20) / Tor1aip2 1418115_s_at (Group G1, Modules 20) / Tor1aip2 1418116_at (Group G1, Modules 20) / Tor1aip2 1435526_at (Group G1, Modules 20) / Trim12a 1437432_a_at (Group G1, Modules 20) / Uba7 1426970_a_at (Group G1, Modules 20) / Adar 1425405_a_at (Group G1, Modules 20) / Adar 1434268_at (Group G1, Modules 20) / Ddx58 1436562_at (Group G1, Modules 20) / Ddx58 1456890_at (Group G1, Modules 20) / Eif2ak2 1422005_at (Group G1, Modules 20) / G3bp2 1421323_a_at (Group G1, Modules 20) / Gm9706///Isg15 1431591_s_at (Group G1, Modules 20) / H2-T10///H2-T22///H2-T9 1449875_s_at (Group G1, Modules 20) / Ifih1 1426276_at (Group G1, Modules 20) / Ifit1 1450783_at (Group G1, Modules 20) / Ifit3 1449025_at (Group G1, Modules 20) / Irf7 1417244_a_at (Group G1, Modules 20) / Irgm1 1418825_at (Group G1, Modules 20) / Mndal 1426906_at (Group G1, Modules 20) / Pml 1448757_at (Group G1, Modules 20) / Pml 1456103_at (Group G1, Modules 20): ID, LV
Text: Each sample's FC value was converted into a z-score on a gene basis by using the entire data set for each organ. The Z-score of the triplicates of interest were summed for each adjuvant. For example, the three sample z-score in the LV sample following cdiGMP administration was summed on a gene-by-gene basis, after which the summed scores of >3 genes were selected as relatively preferentially expressed genes in the LV after cdiGMP administration. The following threshold was applied for selections. […] G2^LV: ALM_IP(z>1) & bCD(z>1) & ENDCN(z>1) & FCA(z>1). […] G4^LV: MALP2s(z>3). […] G2^SP: ENDCN_x2+ENDCN_x3(z>2) & ALM_IP(z>3) & bCD(z>3). […] G4^SP: ADX_ID_x2+ADX_ID_x3(z>2) & ADX_IP(z>3) & MALP2s(z>3). […] G2^LN: bCD(z>3) & FCA(z>3). […] G5^LN: K3(z>1.5) & K3SPG_x1+K3SPG_x2(z>1) & D35_x1+D35_x3(z>1). G6^LN: AddaVax(z>3).

Q: `Cc1ccc2c(=O)c3cccc(CC(=O)O)c3oc2c1C` [DMXAA, 5,6-dimethylxanthenone-4-acetic acid] was tested. Which “Rnf213 1455500_at (Group G1, Modules 20)” value (sample x1) did it give?
A: 1.79

Q: And the “Rsad2 1436058_at (Group G1, Modules 20)” value (sample x1)?
A: 1.56

Q: What about the “Shisa5 1423986_a_at (Group G1, Modules 20)” value (“Shisa5 1423986_a_at” for short) (sample x1) of the same compound?
A: 2.03

Q: And the “Shisa5 1437503_a_at (Group G1, Modules 20)” value (from here on “Shisa5 1437503_a_at”) (sample x1)?
A: 2.12

Q: What about the “Stat1 1450033_a_at (Group G1, Modules 20)” value (from here on “Stat1 1450033_a_at”) (sample x1) of the same compound?
A: 1.5

Q: What about the “Stat1 1450034_at (Group G1, Modules 20)” value (sample x1) of the same compound?
A: 1.53

Q: What about the “Tdrd7 1426716_at (Group G1, Modules 20)” value (sample x1) of the same compound?
A: 1.6

Q: What about the “Tor1aip2 1418115_s_at (Group G1, Modules 20)” value (“Tor1aip2 1418115_s_at” for short) (sample x1) of the same compound?
A: 2.45

Q: And the “Tor1aip2 1418116_at (Group G1, Modules 20)” value (“Tor1aip2 1418116_at” below) (sample x1)?
A: 2.19

Q: And the “Tor1aip2 1435526_at (Group G1, Modules 20)” value (“Tor1aip2 1435526_at” for short) (sample x1)?
A: 2.23

Q: What about the “Trim12a 1437432_a_at (Group G1, Modules 20)” value (from here on “Trim12a 1437432_a_at”) (sample x1) of the same compound?
A: 1.82

Q: And the “Uba7 1426970_a_at (Group G1, Modules 20)” value (sample x1)?
A: 1.81

Q: What about the “Adar 1425405_a_at (Group G1, Modules 20)” value (sample x2) of the same compound?
A: 1.5

Q: What about the “Adar 1434268_at (Group G1, Modules 20)” value (sample x2) of the same compound?
A: 1.52

Q: What about the “Ddx58 1436562_at (Group G1, Modules 20)” value (sample x2) of the same compound?
A: 1.54

Q: What about the “Ddx58 1456890_at (Group G1, Modules 20)” value (sample x2) of the same compound?
A: 1.93

Q: And the “Eif2ak2 1422005_at (Group G1, Modules 20)” value (sample x2)?
A: 1.3

Q: And the “G3bp2 1421323_a_at (Group G1, Modules 20)” value (sample x2)?
A: 1.22

Q: And the “Gm9706///Isg15 1431591_s_at (Group G1, Modules 20)” value (sample x2)?
A: 1.39

Q: And the “H2-T10///H2-T22///H2-T9 1449875_s_at (Group G1, Modules 20)” value (sample x2)?
A: 1.64

Q: And the “Ifih1 1426276_at (Group G1, Modules 20)” value (sample x2)?
A: 1.09

Q: And the “Ifit1 1450783_at (Group G1, Modules 20)” value (sample x2)?
A: 1.54

Q: What about the “Ifit3 1449025_at (Group G1, Modules 20)” value (sample x2) of the same compound?
A: 1.3

Q: What about the “Irf7 1417244_a_at (Group G1, Modules 20)” value (sample x2) of the same compound?
A: 1.18

Q: What about the “Irgm1 1418825_at (Group G1, Modules 20)” value (sample x2) of the same compound?
A: 1.33

Q: What about the “Mndal 1426906_at (Group G1, Modules 20)” value (sample x2) of the same compound?
A: 1.19

Q: What about the “Pml 1448757_at (Group G1, Modules 20)” value (sample x2) of the same compound?
A: 1.35

Q: And the “Pml 1456103_at (Group G1, Modules 20)” value (sample x2)?
A: 1.34

Q: What about the “Rnf213 1455500_at (Group G1, Modules 20)” value (sample x2) of the same compound?
A: 1.2

Q: What about the “Rsad2 1436058_at (Group G1, Modules 20)” value (sample x2) of the same compound?
A: 1.25

Q: And the “Shisa5 1423986_a_at” value (sample x2)?
A: 1.81

Q: What about the “Shisa5 1437503_a_at” value (sample x2) of the same compound?
A: 1.62

Q: What about the “Stat1 1450033_a_at” value (sample x2) of the same compound?
A: 1.73

Q: What about the “Stat1 1450034_at (Group G1, Modules 20)” value (sample x2) of the same compound?
A: 1.96

Q: What about the “Tdrd7 1426716_at (Group G1, Modules 20)” value (sample x2) of the same compound?
A: 1.74

Q: What about the “Tor1aip2 1418115_s_at” value (sample x2) of the same compound?
A: 1.52

Q: What about the “Tor1aip2 1418116_at” value (sample x2) of the same compound?
A: 1.92

Q: And the “Tor1aip2 1435526_at” value (sample x2)?
A: 1.48

Q: What about the “Trim12a 1437432_a_at” value (sample x2) of the same compound?
A: 1.56

Q: And the “Uba7 1426970_a_at (Group G1, Modules 20)” value (sample x2)?
A: 1.59

Q: And the “Adar 1425405_a_at (Group G1, Modules 20)” value (sample x3)?
A: 0.93

Q: And the “Adar 1434268_at (Group G1, Modules 20)” value (sample x3)?
A: 0.92

Q: And the “Ddx58 1436562_at (Group G1, Modules 20)” value (sample x3)?
A: 1.31

Q: What about the “Ddx58 1456890_at (Group G1, Modules 20)” value (sample x3) of the same compound?
A: 1.56

Q: And the “Eif2ak2 1422005_at (Group G1, Modules 20)” value (sample x3)?
A: 0.68

Q: What about the “G3bp2 1421323_a_at (Group G1, Modules 20)” value (sample x3) of the same compound?
A: 0.71

Q: And the “Gm9706///Isg15 1431591_s_at (Group G1, Modules 20)” value (sample x3)?
A: 0.8

Q: What about the “H2-T10///H2-T22///H2-T9 1449875_s_at (Group G1, Modules 20)” value (sample x3) of the same compound?
A: 0.51

Q: And the “Ifih1 1426276_at (Group G1, Modules 20)” value (sample x3)?
A: 0.78

Q: And the “Ifit1 1450783_at (Group G1, Modules 20)” value (sample x3)?
A: 1.04

Q: And the “Ifit3 1449025_at (Group G1, Modules 20)” value (sample x3)?
A: 0.74

Q: And the “Irf7 1417244_a_at (Group G1, Modules 20)” value (sample x3)?
A: 1

Q: What about the “Irgm1 1418825_at (Group G1, Modules 20)” value (sample x3) of the same compound?
A: 0.79

Q: And the “Mndal 1426906_at (Group G1, Modules 20)” value (sample x3)?
A: 0.73

Q: What about the “Pml 1448757_at (Group G1, Modules 20)” value (sample x3) of the same compound?
A: 0.83

Q: What about the “Pml 1456103_at (Group G1, Modules 20)” value (sample x3) of the same compound?
A: 0.34

Q: And the “Rnf213 1455500_at (Group G1, Modules 20)” value (sample x3)?
A: 0.97

Q: What about the “Rsad2 1436058_at (Group G1, Modules 20)” value (sample x3) of the same compound?
A: 0.44

Q: What about the “Shisa5 1423986_a_at” value (sample x3) of the same compound?
A: 1.42

Q: And the “Shisa5 1437503_a_at” value (sample x3)?
A: 1.72

Q: What about the “Stat1 1450033_a_at” value (sample x3) of the same compound?
A: 1.15

Q: What about the “Stat1 1450034_at (Group G1, Modules 20)” value (sample x3) of the same compound?
A: 1.16

Q: And the “Tdrd7 1426716_at (Group G1, Modules 20)” value (sample x3)?
A: 1.09

Q: And the “Tor1aip2 1418115_s_at” value (sample x3)?
A: 0.98

Q: And the “Tor1aip2 1418116_at” value (sample x3)?
A: 1.37

Q: And the “Tor1aip2 1435526_at” value (sample x3)?
A: 1.01

Q: What about the “Trim12a 1437432_a_at” value (sample x3) of the same compound?
A: 1.11

Q: And the “Uba7 1426970_a_at (Group G1, Modules 20)” value (sample x3)?
A: 1.21

Q: What about the “preferentially induced biological process relative to adjuvants targeting the same receptor” value (LN, z-scores and 40 module mapping) of the same compound?
A: preferentially induced RNA processing and gene expression responses more than cdiGMP or cGAMP

Q: And the “adjuvant group-associated biological features” value (z-score selected genes, TargetMine and IPA upstream cytokine analyses)?
A: strongly associated with type I and type II interferon responses

Source: patent publication US20230021483A1, “[…] […] METHOD AND CLASSIFICATION OF PHARMACEUTICAL COMPONENTS BY USING TRANSCRIPTOMES” (National Institutes of Biomedical Innovation, Health and …, priority 2016, published 2023)
